From patent US20190201538A1, “TUMOR-TARGETING PHOTOSENSITIZER-DRUG CONJUGATE, METHOD FOR PREPARING SAME AND PHARMACEUTICAL COMPOSITION FOR PREVENTING OR TREATING TUMOR CONTAINING SAME” (KOREA INSTITUTE OF SCIENCE AND TECHNOLOGY, priority 2018, published 2019)
Numbered stars: 1 amine (or outer) side, 2 acyl side, 3 side chain; on linkers, the order of the positions; unused ones are H or OH. Square brackets hold non-standard residues; d marks the D form. Peptide text beside a SMILES is read from it. * marks the point of attachment. ξ: configuration not given here. X1 = C=Cc1c(C)c2cc3nc(c(CC(=O)O)c4nc(cc5[nH]c(cc1[nH]2)c(C)c5CC)C(C)=C4C(=O)O)C(CCC(=O)*)C3C; Dolaproine = CO[C@@H]([C@@H]1CCCN1)[C@@H](C)C(=O)O; ξDil = CC[C@H](C)C([C@@H](CC(=O)[*:2])OC)N(C)[*:1]; Dil = CC[C@H](C)[C@H](NC)[C@@H](CC(=O)O)OC; PABC = O=C(OCc1ccc(N[*:1])cc1)[*:2]; X2 = C[C@@H](N*)[C@@H](O)c1ccccc1; NMeV = CN[C@H](C(=O)O)C(C)C

Assays:
[1] = tested on: SCC7 cells; test: Trypan blue staining after laser irradiation of a marked area; assay type: cell-based; details: 500 nM, 20 mW/cm^2 for 5 minutes
Description: […], SCC7 cells were cultured until 80% confluence on a 60 mm cell culture dish. […] After the incubation was completed, the culture medium was replaced. A laser was irradiated at 20 mW/cm^2 for 5 minutes only onto an area marked with a small circle on the culture dish. Then, the cells were treated with trypan blue for 1 minute.
(§1) The black circles indicate the sites irradiated with the laser.

[2] = Toxicity in vivo in tumor animal model (C3H); parameters: species or system mouse; number of neutrophils: unit not given here; details: for change in number of total white blood cells (WBCs): 0.5 mg/kg (CDM based on MMAE concentration); for change in body weight: 50, 200, 500 μg/kg (CDM based on MMAE concentration); for survival rate: CDM 0.25 mg/kg based on MMAE, Ce6 1 mg/kg group
Description: The body weight change of the tumor animal model was measured every day after treatment with the drug. […] All the blood samples were stored at 4° C. and analyzed within a day in SCL (Seoul Clinical Laboratories, Korea).
First, a tumor animal model was prepared by transplanting SCC7 tumor cells into a C3H mouse. Details are described above in Materials and methods.
6 groups were prepared as follows by injecting drugs into the tail vein of the tumor animal model. […] The total treatment period was 14 days.

[3] = self-assembled nanoparticle, DPBS 0.1 mg/mL
Description: Molecular structure was investigated with ChemBioDraw Ultra 12.0 (Cambridge Soft Corporation), PyMOL 1.7.0.1 (DeLano Scientific) or Discovery Studio 4.0. […] Hydrodynamic size and distribution were measured by dynamic light scattering (SZ-100, Horiba, Ltd., Japan) using a 532 nm DPSS laser.

[4] = target: caspase-3 (Homo sapiens, UniProt P42574)
Description: Finally, the mixture solution was analyzed by RP-HPLC (Agilent 1200 series, Agilent Technology, USA) equipped with a UV detector.

[5] = self-assembled nanoparticle, physiological saline
Description: Morphology was observed by transmission electron microscopy (Talos F200X, FEI Company, USA). All the samples were treated with a 1% uranyl acetate solution to obtain negatively stained microscopic images.

[6] = pyrene method
Description: Next, emission spectra were obtained at 372 nm and 383 nm using a spectrophotometer (F-7000, Hitachi High-Technologies Corporation, Japan) with an excitation wavelength of 340 nm. […] Fluorescence images were obtained at excitation (660 nm) and emission (710 nm) wavelengths.

[7] = tested on: SCC7 tumor; test: Biodistribution in vivo by NIR fluorescence imaging in tumor animal model; parameters: species or system mouse
Description: Near-infrared (NIR) fluorescence imaging was conducted using a real-time optical imaging system in order to evaluate biodistribution in vivo. […]
For the in-vivo experiment, a tumor animal model was prepared by injecting 1×10^6 SCC7 cells into the left flank of a nude mouse.

[8] = physiological saline
[9] = tested on: caspase-3; details: 500 nM, CDM + laser
Description: Caspase-3 colorimetric assay and western blot were conducted to quantify enzyme expression. First, SCC7 cells were cultured on a 100 mm^2 cell culture dish until 70% confluence and further cultured for 6 hours after adding a drug (500 nM). After replacing the medium, light was irradiated with 20 mW/cm^2 for 5 minutes. After culturing further for 3 hours, the cells were recovered for analysis of caspase-3. For immunoblotting assay, the cells were treated with anti-cleaved caspase-3 antibody (1:650) and anti-PARP antibody (1:1000) purchased from Cell Signaling Technology (Danvers, Mass.) as primary antibodies and then treated with HRP-conjugated anti-rabbit IgG and anti-mouse IgG (1:1000; R&D Systems) as secondary antibodies. The blotted membrane was analyzed with a chemiluminescence imager (LAS-3000; Fuji Photo Film, Japan). Colorimetric assay of caspase-3 was conducted using a microplate reader (VERSAmaxTM, Molecular Devices Corp., USA) and a caspase-3 assay kit (Abcam, Cambridge, MA) according to the manufacturer's instructions.

[10] = tested on: SCC7 cells; test: Cytotoxicity in vitro (CCK-8), with or without caspase-3; assay type: cell-based; details: for effect on tumor cells at 10 nM without caspase-3: not activated by caspase-3 / alone
Description: The cytotoxicity of a drug was evaluated by a colorimetric assay using the cell counting kit-8 (CCK-8; Dojindo Molecular Technologies, Inc., USA). […] After removing the culture medium, the plate was washed twice with PBS.

[11] = tested on: SCC7 cells; details: 50 μg/mL
Description: Experiments were conducted using SCC7 cells as follows. Specifically, the cells were cultured in a medium containing 10% fetal bovine serum (FBS) and 1% antibiotic using a 5% CO2 incubator at 37 C. […] After the incubation was completed, the cells were washed and fixed with a 2% paraformaldehyde solution. Then, the cells were stained with 4,6-diamidino-2-phenylindole (DAPI, Invitrogen, USA).

[12] = Solubility in water, PBS and physiological saline; assay type: physicochemical; details: for solubility in water: dissolved in water alone
[13] = tested on: SCC7 tumor; test: Antitumor effect in tumor animal model (C3H); details: for tumor growth with laser: drug + 671 nm laser 25 mW/cm^2, Ce6 1 mg/kg, CDM 0.25 mg/kg based on MMAE; for damage to other organs (biopsy) / tumor cell killing in H&E biopsy: drug + laser
Description: For evaluation of therapeutic effect in vivo, tumor volume was measured for a tumor animal model for 14 days. When the tumor tissue grew to a size of about 80 mm^3, the tumor animal model was evaluated by dividing into 6 groups as follows.
Then, the tumor size was measured every other day.
For histological analysis, tumor tissues and organ tissues were taken from the in-vivo animal model after conducting antitumor growth analysis. The extracted tissues were washed with PBS and fixed with a 4% paraformaldehyde solution. Then, the tissues were stained with H&E (hematoxylin and eosin) and the stained tissues were embedded in paraffin and placed on glass slides after cutting into 4 μm thick slices. After removing paraffin, the tissues were stained with H&E and observed under an optical microscope (BX 51; Olympus, USA). […] The tissues were cut into 10 μm thick slices, freeze-dried and then observed under a confocal laser scanning microscope.
A He—Ne laser (671 nm) was used and the laser was irradiated at 25 mW/cm^2 three times for 10 minutes after the injection of the drug (n=6).

[14] = 1 mg/kg, tail vein
Description: For comparative analysis of pharmacokinetic characteristics in vivo, a tumor animal model was prepared in the same manner as in 9) using C57/BL6 mice instead of BALB/c nude mice.
After the injection, 20 μL of blood was taken from the tail vein of the tumor animal model (C57/BL6) over 12 hours at predetermined time intervals. The blood was immediately diluted to 5-fold with a 0.5 mg/kg low-molecular-weight heparin solution (DMSO:DIW cosolvent). Then, after transferring to a 96-well plate, the fluorescence intensity of the drug in the blood was measured by near-infrared (NIR) fluorescence quantification using a real-time optical imaging system equipped with a 660 nm excitation filter and a 710 nm emission filter. A calibration curve was constructed to analyze the concentration of the drug from the detected fluorescence intensity. The calibration curve was constructed by taking blood from an untreated tumor animal model and adjusting the concentration of the drug in the blood to 10^−8-10^−4.

[15] = tested on: SCC7 cells; details: SCC7 cells incubated with CDM, laser irradiation
Description: The apoptosis of the fixed cells was measured using an annexin V-FITC apoptosis detection kit (Sigma-Aldrich Co., USA). […] Then, the light-irradiated cells were treated with trypsin and stained for 30 minutes with FITC-annexin V and propidium iodide (PI) according to the manufacturer's instructions. The fluorescence images of the stained cells were obtained using a confocal laser scanning microscope (Leica TCS SP8; Leica Microsystems, Germany).

[16] = tested on: SCC7 cells; test: Cytotoxicity upon exposure to light (CCK-8)
Description: Specifically, 1×10^4 cells were seeded onto each well of a 96-well plate and cultured for 24 hours. Then, the cells were incubated with a drug at 500 nM for 6 hours after washing twice with PBS. After removing the culture medium, the cells were irradiated with light at 2.4 J/cm^2. The cells were then incubated for 30 minutes in a medium containing a 10% CCK-8 solution and absorbance was measured at 450 nm using a microplate reader.
as §1

[17] = tested on: SCC7 tumor
Description: In order to conduct an in-vivo animal experiment, 5-week-oil BALB/c nude mouse mice were used as an allograft tumor animal model (BALB/c). The tumor animal model (BALB/c) was prepared by preparing a cell suspension containing 1×10^6 SCC7 cells and 80 μL of a medium and injecting it into the thighbone at the flank of the BALB/c nude mouse where the effect of respiratory movement is little. Then, the mice were bred for about 8 days until the tumor grew to a size of about 80 mm^3.
The tumor animal model prepared by administering various drugs as described in 9) was subjected to photodynamic therapy and the expression level of caspase-3 in vivo was monitored. For this, NIR fluorescence images were obtained using a probe which is activated by specifically reacting with caspase-3 (Cas3p; Cy5-GDEVD-BHQ3).
After 3 hours, Cas3p was injected and its biodistribution was measured using an excitation filter (640 nm) and an emission filter (710 nm).
First, in order to clarify the stimulation-specific therapeutic effect for a tumor animal model, the same tumor tissue was transplanted into different parts (left and right sides) of the same animal model and the two tumor tissues were compared.
A tumor animal model (Balb/c nu/nu) was prepared as described above in Materials and methods 9).

caspase-3 (Homo sapiens, UniProt P42574), sequence (P42574 29-175 limits assumed, species assumed): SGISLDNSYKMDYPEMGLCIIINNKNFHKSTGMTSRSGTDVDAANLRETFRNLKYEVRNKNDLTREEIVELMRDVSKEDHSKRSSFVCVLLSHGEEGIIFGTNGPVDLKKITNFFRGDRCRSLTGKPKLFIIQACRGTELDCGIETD
caspase-3 (Homo sapiens, UniProt P42574), sequence (P42574 176-277 limits assumed, species assumed): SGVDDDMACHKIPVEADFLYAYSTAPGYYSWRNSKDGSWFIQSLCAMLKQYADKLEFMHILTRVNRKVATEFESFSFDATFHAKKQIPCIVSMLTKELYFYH

Compound: C=Cc1c(C)c2cc3nc(c(CC(=O)O)c4nc(cc5[nH]c(cc1[nH]2)c(C)c5CC)C(C)=C4C(=O)O)C(CCC(=O)NCCCC[C@H](NC(C)=O)C(=O)NCC(=O)N[C@@H](CC(=O)O)C(=O)N[C@@H](CCC(=O)O)C(=O)N[C@H](C(=O)N[C@@H](CC(=O)O)C(=O)Nc1ccc(COC(=O)N(C)[C@H](C(=O)N[C@H](C(=O)N(C)C([C@@H](C)CC)[C@@H](CC(=O)N2CCC[C@H]2[C@H](OC)[C@@H](C)C(=O)N[C@H](C)[C@@H](O)c2ccccc2)OC)C(C)C)C(C)C)cc1)C(C)C)C3C (stereo partly shown) [CDM, Ce6-(Ac)KGDEVD-PABC-MMAE] (Ac-K(X1)GDEVD[PABC][NMeV]V[ξDil][Dolaproine]-X2)
- cells killed after laser irradiation of a marked area [1]: nearby cells were also killed effectively
- change in number of total white blood cells (WBCs) [2]: no change
- number of neutrophils ([2]; 0.5 mg/kg based on MMAE concentration): 1.6±1.0000
- change in body weight [2]: 4.8±0.2%
- survival rate [2]: 100%
- average diameter (hydrodynamic, DLS) [3]: 90.8±18.9 nm
- time to effective activation by caspase-3 ([4]; 10 μM CDM, 500 ng/mL caspase-3, 37° C.): ≤ 2 h
- activation by caspase-3 in presence of caspase-3 inhibitor (Z-DEVD-FMK) ([4]; incubation for 2 hours): not completely activated
- average diameter (TEM images) [5]: about 52.6±20.0 nm
- critical micelle concentration (CMC) [6]: about 1.382 μM
- fluorescence intensity in organs and tumor 24 hours after injection ([7]; liver, lung, spleen, kidney, heart and tumor tissues): high
- fluorescence intensity in the tumor tissue relative to Ce6-injected model ([7]; mouse, in vivo): 12.8-4.2
- time of highest fluorescence intensity in the tumor ([7]; tail vein injection): 6 to 12 h
- average diameter (SEM) [8]: 50-200 nm
- intracellular caspase-3 level (western blot) [9]: increased the intracellular concentration of caspase-3
- tumor cell growth (cell viability, CCK) ([10]; 10 nM in combination with caspase-3): 50.1%
- effect on tumor cells at 10 nM without caspase-3 [10]: little effect
- cell survival rate ([10]; 50 nM in the presence of caspase-3): 42.5%
- cell survival rate ([10]; 200 nM in the presence of caspase-3): 32.5%
- cell survival rate ([10]; 600 nM in the presence of caspase-3): 25.5%
- time to accumulation in the cells in an enough amount [11]: ≤ 3 h
- solubility ([12]; water, PBS and physiological saline): dissolves well in all of water, PBS and physiological saline
- tumor size with time, no laser ([13]; CDM group, laser not irradiated): no change in tumor size
- tumor weight decrease compared to the CDM group and the laser group ([13]; CDM+laser group): 99.6%
- tumor growth with laser [13]: no tumor growth
- damage to other organs (biopsy) [13]: no damage to other organs
- tumor cell killing in H&E biopsy [13]: killed extensively
- blood level at first [14]: higher than that of Ce6
- apoptosis induction on light irradiation [15]: can induce apoptosis even with a small quantity of light
- cell viability ([16]; 500 nM, light irradiated from outside (laser (+))): 12.8±9.2%
- cytotoxic effect compared to when the drugs are used alone ([16]; after external stimulation (light irradiation or caspase-3)): ≥ 2 time
- growth of left-side vs right-side (laser) tumor ([17]; 0.5 mg/kg, 15 days): distinct difference in the growth of the left-side and right-side tumors
- caspase-3 probe (Cy5-GDEVD-BHQ3) fluorescence in tumors ([17]; CDM i.v., laser on right-side tumor only): observed only in the right-side tumor

Compound: CC[C@H](C)[C@@H]([C@@H](CC(=O)N1CCC[C@H]1[C@H](OC)[C@@H](C)C(=O)N[C@H](C)[C@@H](O)c1ccccc1)OC)N(C)C(=O)[C@@H](NC(=O)[C@@H](NC)C(C)C)C(C)C [MMAE, monomethyl auristatin E] (H-[NMeV]V[Dil][Dolaproine]-X2)
- increase in plasma ALT ([2]; 0.5 mg/kg): 1.5 times
- increase in plasma AST ([2]; 0.5 mg/kg): 2.7 times
- neutrophils, times less as compared to the saline group ([2]; 0.5 mg/kg): 4.9 times
- percentage of the neutrophils to the total white blood cells ([2]; 0.5 mg/kg): 2.5±1.4%
- change in number of total white blood cells (WBCs) [2]: 35.7±13.8%
- change in body weight [2]: 31.6±2.2%
- day on which all were killed ([2]; MMAE 0.25 mg/kg): 4 days
- day on which group began to die ([2]; MMAE 0.25 mg/kg): 3 days
- size of lymphocytes (lymphoid tissue; white pulp) in spleen ([2]; MMAE group): significantly decreased
- spleen weight decrease ([2]; MMAE group): 75±11.8%
- body weight decrease ([2]; MMAE group, 0.25 mg/kg): 31.9±1.6%
- solubility in water [12]: water insolubility
- outcome of group during the antitumor experiment ([13]; MMAE 0.25 mg/kg only): died during the experiment because of too strong toxicity
- cell viability ([16]; treated with MMAE only): 25.8±10.1%

Compound: Chlorin e6 [Ce6, reference compound]
- cells killed after laser irradiation of a marked area [1]: only the cells treated with a laser were killed
- survival rate [2]: 100%
- fluorescence in the tumor tissue ([7]; tail vein injection): hardly detected
- effect on tumor cells at 10 nM without caspase-3 [10]: no effect
- solubility in water [12]: water insolubility
- tumor growth with laser [13]: tumor growth-inhibiting effect
- damage to other organs (biopsy) [13]: no damage to other organs
- tumor cell killing in H&E biopsy [13]: very insignificant
